Laboratory results taken from patent US8546376B2, “Pharmaceutical compounds” (Almac Discovery Limited, priority 2009, dated 2013).
Counter-ions that a name gives are not always drawn.

Key:
Assay type in all cases: biochemical
AKT1 = target: T1, AKT1 (Homo sapiens, UniProt P31749); test: AKT Kinase Assay (IMAP fluorescent polarisation) vs AKT1; settings: activated AKT1, FAM Crosstide substrate
T1 construct: purchased SignalChem
Description: (§1) Testing of the compounds was performed using an AKT Kinase Assay:
(§2) Activated AKT isoforms 1, 2 and 3 were assayed utilising a 5′ FAM Crosstide (Seq. GRPRTSSFAEG-OH). The extent of kinase phosphorylation was determined by fluorescent polarisation using IMAP progressive binding reagent, which introduces binding beads which allow the reagent to specifically bind to phosphate residues via covalent co-ordination complex bonds.
(§3) iMAP binding solution stops Crosstide/kinase interaction and specifically binds phosphorylated substrates. The degree of phosphorylation is determined by fluorescent polarisation (excitation 485 nm; emission 528 nm) or the reduction in speed of rotation of the excited substrate.
(§4) The following materials were used in the assay: • a) Activated AKT isoforms (SignalChem.) dissolved in Complete Reaction buffer at a pre-determined concentration selected so that the assay was carried out in the linear range. • b) AKT substrate peptide: FAM Crosstide (R7110) Molecular Devices, diluted in complete reaction buffer. • c) iMAP Progressive Screening Express Kit (R8127) Molecular Devices • d) Complete Reaction Buffer containing 0.1% BSA, 10 mM Tris-HCl, 10 mM MgCl2, 0.05% NaN3 and 0.01% phosphate free BSA, 1 mM DTT • e) Progressive Binding Solution containing 75% Buffer A, 25% Buffer B and low volume Binding Reagent which contains the binding entity for the assay • f) ATP diluted in complete reaction buffer • g) Black polystyrene 384 well assay plates (Nunc). • h) Biotek Synergy 4 Hybrid Plate reader.
(§5) 5 μl of test compound was dissolved in DMSO (Sigma Aldrich) and serially diluted in complete reaction buffer to give a fourteen point half log dose response and plated into 384 well black plates. The compound was incubated at room temperature with activated AKT isoform (5 μl) at the pre-determined concentration, for 45 minutes.
(§6) 2.5 μl of ATP solution mixed with 2.5 μl of AKT substrate peptide (FAM Crosstide (R7110) Molecular Devices) were dispensed into each well and the plate centrifuged at 1000 rpm for 20 seconds to ensure homogenous mixing of reagents. The reaction mix was incubated in the dark for one hour at room temperature.
(§7) The kinase reaction was stopped by the addition of Progressive Binding Solution and the mixture allowed to equilibrate for one hour in the dark, at room temperature.
(§8) The fluorescent polarisation generated in each well was determined using a […] Synergy 4 Hybrid plate reader. In brief, each reaction solution was excited at 485 nm with the emission measured at 528 nm in both the parallel and perpendicular pathway.
(§9) The polarisation value generated in each well was calculated by Gen5 software (Biotek) and the % inhibition of kinase activity compared to vehicle control was calculated via GraphPad Prism. IC50 values for each compound were calculated by non-linear regression analysis using Prism software.
(§10) All plates were internally controlled by two methods. Firstly, by calculating the signal:noise ratio; based on kinase polarisation without inhibitor and polarisation generated by complete reaction buffer in the absence of activated kinase. Secondly by determining IC50 values generated by known inhibitors of the AKT isoforms.

AKT2 = target: T2, AKT2 (Homo sapiens, UniProt P31751); test: AKT Kinase Assay (IMAP fluorescent polarisation) vs AKT2; settings: activated AKT2, FAM Crosstide substrate
T2 construct: purchased SignalChem
T2 sequence (P31751 whole entry): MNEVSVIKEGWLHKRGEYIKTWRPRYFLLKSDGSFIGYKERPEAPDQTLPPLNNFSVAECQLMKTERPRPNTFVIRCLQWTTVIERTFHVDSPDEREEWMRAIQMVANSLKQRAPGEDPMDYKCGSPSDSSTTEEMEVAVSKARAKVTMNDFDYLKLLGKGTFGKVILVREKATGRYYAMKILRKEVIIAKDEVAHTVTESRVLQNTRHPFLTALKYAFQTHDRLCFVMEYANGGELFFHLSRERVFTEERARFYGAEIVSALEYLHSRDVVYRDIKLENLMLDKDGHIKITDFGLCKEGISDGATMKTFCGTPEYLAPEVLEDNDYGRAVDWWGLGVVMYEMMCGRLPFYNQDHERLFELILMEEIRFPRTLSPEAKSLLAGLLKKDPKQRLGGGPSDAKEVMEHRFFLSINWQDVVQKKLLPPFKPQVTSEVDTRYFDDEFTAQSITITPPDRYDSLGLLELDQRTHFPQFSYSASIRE
Description: as §1, §2, §3, §4, §5, §6, §7, §8, §9, §10

AKT3 = target: T3, AKT3 (Homo sapiens, UniProt Q9Y243); test: AKT Kinase Assay (IMAP fluorescent polarisation) vs AKT3; settings: activated AKT3, FAM Crosstide substrate
T3 construct: purchased SignalChem
T3 sequence (Q9Y243 whole entry): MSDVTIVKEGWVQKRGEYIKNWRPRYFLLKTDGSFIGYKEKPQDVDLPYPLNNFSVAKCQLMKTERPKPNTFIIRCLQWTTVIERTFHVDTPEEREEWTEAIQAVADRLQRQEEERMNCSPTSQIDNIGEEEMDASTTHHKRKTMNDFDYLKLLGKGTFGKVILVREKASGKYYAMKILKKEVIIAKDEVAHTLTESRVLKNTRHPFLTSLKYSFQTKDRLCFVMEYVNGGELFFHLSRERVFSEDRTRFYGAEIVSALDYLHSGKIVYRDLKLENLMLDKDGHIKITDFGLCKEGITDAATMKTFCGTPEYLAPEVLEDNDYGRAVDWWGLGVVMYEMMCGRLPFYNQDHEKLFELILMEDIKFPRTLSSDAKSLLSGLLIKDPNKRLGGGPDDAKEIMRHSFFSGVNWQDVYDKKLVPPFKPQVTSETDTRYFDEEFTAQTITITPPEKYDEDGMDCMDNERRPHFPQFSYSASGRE
Description: as §1, §2, §3, §4, §5, §6, §7, §8, §9, §10

T1 sequence (P31749 whole entry): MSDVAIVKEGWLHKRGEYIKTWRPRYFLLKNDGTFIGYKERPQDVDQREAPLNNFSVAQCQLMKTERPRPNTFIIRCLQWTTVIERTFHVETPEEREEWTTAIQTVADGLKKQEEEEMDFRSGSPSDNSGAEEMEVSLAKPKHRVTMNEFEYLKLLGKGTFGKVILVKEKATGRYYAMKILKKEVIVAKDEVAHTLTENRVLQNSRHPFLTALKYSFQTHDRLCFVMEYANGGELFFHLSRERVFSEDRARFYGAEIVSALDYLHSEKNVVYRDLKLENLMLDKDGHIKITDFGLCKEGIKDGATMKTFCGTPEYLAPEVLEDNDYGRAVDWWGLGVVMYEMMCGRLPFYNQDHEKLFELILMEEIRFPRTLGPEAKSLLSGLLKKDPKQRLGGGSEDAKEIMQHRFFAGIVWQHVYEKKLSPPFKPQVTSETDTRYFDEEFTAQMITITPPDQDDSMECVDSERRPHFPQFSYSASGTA

SMILES | IC50 (AKT1) [nM] | IC50 (AKT2) [nM] | IC50 (AKT3) [nM]
N#CCn1ncc2ccc3c(=O)c(-c4ccc(C5(N)CCC5)cc4)c(-c4ccccc4)oc3c21 [Example 111, 2-(7-(4-(1-aminocyclobutyl)phenyl)-6-oxo-8-phenylpyrano[3,2-g]indazol-1(6H)-v1)acetonitrile] | ≤ 1000 | 1000 to 10000 | 1000 to 10000
COc1cc2c(=O)c(-c3ccc(C4(N)CCC4)cc3)c(-c3ccccc3)oc2cc1-c1ccn[nH]1 [Example 28, 3-[4-(1-Amino-cyclobutyl)-phenyl]-6-methoxy-2-phenyl-7-(2H-pyrazol-3yl)-chromen-4-one] | > 10000 | 1000 to 10000 | > 10000
NC1(c2ccc(-c3c(-c4ccccc4)oc4c(-c5cccnc5)cccc4c3=O)cc2)CCC1 [Example 56, 3-[4-(1-Amino-cyclobutyl)-phenyl]-2-phenyl-8-pyridin-3-yl-chromen-4-one] | ≤ 1000 | ≤ 1000 | 1000 to 10000
Cn1ncc2c3oc(-c4ccccc4)c(-c4ccc(C5(N)CCC5)cc4)c(=O)c3ccc21 [Example 60, 3-[4-(1-Amino-cyclobutyl)-phenyl]-7-methyl-2-phenyl-7H-pyrano[2,3-e]indazol-4-one] | ≤ 1000 | ≤ 1000 | 1000 to 10000
NC1(c2ccc(-c3c(-c4ccccc4)oc4c(ccc5[nH]ncc54)c3=O)cc2)CCC1 [Example 33, 3-[4-(1-Amino-cyclobutyl)-phenyl]-2-phenyl-7H-pyrano[2,3-c]indazol-4-one] | ≤ 1000 | ≤ 1000 | ≤ 1000
NC1(c2ccc(-c3c(-c4ccccc4)oc4c(OCCO)nccc4c3=O)cc2)CCC1 [Example 125, 3-(4-(1-aminocyclobutyl)phenyl)-8-(2-hydroxyethoxy)-2-phenyl-4H-pyrano[2,3-c]pyridin-4-one] | ≤ 1000 | 1000 to 10000 | > 10000
N#Cc1ccc2oc(-c3ccccc3)c(-c3ccc(C4(N)CCC4)cc3)c(=O)c2c1 [Example 21, 3-[4-(1-Amino-cyclobutyl)-phenyl]-4-oxo-2-phenyl-4H-chromene-6-carbonitrile] | 1000 to 10000 | 1000 to 10000 | > 10000
NC1(c2ccc(-c3c(-c4ccccc4)oc4c(-n5cnnc5)nccc4c3=O)cc2)CCC1 [Example 102, 3-[4-(1-Amino-cyclobutyl)-phenyl]-2-phenyl-8-[1,2,4]triazol-4-yl-pyrano[2,3-c]pyridin-4-one hydrochloride] | ≤ 1000 | 1000 to 10000 | > 10000
NC1(c2ccc(-c3c(-c4ccccc4)oc4c(ccc5c(Cl)n[nH]c54)c3=O)cc2)CCC1 [Example 99, 7-[4-(1-Amino-cyclobutyl)-phenyl]-3-chloro-8-phenyl-1H-9-oxa-1,2-diaza-cyclopenta[a]naphthalen-6-one hydrochloride] | ≤ 1000 | 1000 to 10000 | 1000 to 10000
NC1(c2ccc(-c3c(-c4ccccc4)oc4c5c(ccc4c3=O)NC(=O)CO5)cc2)CCC1 [Example 92, 7-[4-(1-Amino-cyclobutyl)-phenyl]-6-phenyl-1H-4,5-dioxa-1-aza-phenanthrene-2,8-dione] | ≤ 1000 | ≤ 1000 | 1000 to 10000
Cc1nccc2c(=O)c(-c3ccc(C4(N)CCC4)cc3)c(-c3ccccc3)oc12 [Example 120, 3-(4-(1-aminocyclobutyl)phenyl)-8-methyl-2-phenyl-4H-pyrano[2,3c]pyridin-4-one] | 1000 to 10000 | 1000 to 10000 | > 10000
NC1(c2ccc(-c3c(-c4ccccc4)oc4c(CN5CC(F)C5)cccc4c3=O)cc2)CCC1 [Example 108, 3-[4-(1-Amino-cyclobutyl)-phenyl]-8-(3-fluoro-azetidin-1-ylmethyl)-2-phenyl-chromen-4-one] | 1000 to 10000 | ≤ 1000 | > 10000
NC1(c2ccc(-c3c(-c4ccccc4)oc4c(-c5cn[nH]c5)cccc4c3=O)cc2)CCC1 [Example 52, 3-[4-(1-Amino-cyclobutyl)-phenyl]-2-phenyl-8-(1H-pyrazol-4-yl)-chromen-4-one hydrochloride] | ≤ 1000 | ≤ 1000 | ≤ 1000
NC1(c2ccc(-c3c(-c4ccccc4)oc4c(Oc5ccccn5)nccc4c3=O)cc2)CCC1 [Example 103, 3-[1-(1-Amino-cyclobutyl)-phenyl]-2-phenyl-8-(pyridin-2-yloxy)-pyrano[2,3-c]pyridin-4-one hydrochloride] | ≤ 1000 | 1000 to 10000 | > 10000
NC1(c2ccc(-c3c(-c4ccccc4)oc4c(-c5ccc(C6(N)CCC6)cc5)nccc4c3=O)cc2)CCC1 [Example 113, 3,8-bis(4-(1-aminocyclobutyl)phenyl)-2-phenyl-4H-pyrano[2,3-c]pyridin-4-one] | ≤ 1000 | > 10000 | > 10000
NC1(c2ccc(-c3c(-c4ccccc4)oc4c(C5CC5)nccc4c3=O)cc2)CCC1 [Example 126, hydrochloride] | ≤ 1000 | 1000 to 10000 | > 10000
Nc1ccc2c(=O)c(-c3ccc(C4(N)CCC4)cc3)c(-c3ccccc3)oc2c1O [Example 93, 7-Amino-3-[4-(1-amino-cyclobutyl)-phenyl]-8-hydroxy-2-phenyl-chromen-4-one] | ≤ 1000 | 1000 to 10000 | > 10000
NC1(c2ccc(-c3c(-c4ccccc4)oc4c(ccn5c(=O)[nH]nc45)c3=O)cc2)COC1 [Example 68, 7-[4-(3-Amino-oxetan-3-yl)-phenyl]-8-phenyl-2H-9-oxa-1,2,3a-triaza-cyclopenta[a]naphthalene-3,6-dione] | ≤ 1000 | 1000 to 10000 | > 10000
CCn1ncc2ccc3c(=O)c(-c4ccc(C5(N)CCC5)cc4)c(-c4ccccc4)oc3c21 [Example 81, 7-[4-(1-Amino-cyclobutyl)-phenyl]-1-ethyl-8-phenyl-1H-9-oxa-1,2-diaza-cyclopenta[a]naphthalen-6-one hydrochloride] | ≤ 1000 | ≤ 1000 | 1000 to 10000
Cc1nn(C)c(C)c1-c1nccc2c(=O)c(-c3ccc(C4(N)CCC4)cc3)c(-c3ccccc3)oc12 [Example 115, 3-(4-(1-aminocyclobutyl)phenyl)-2-phenyl-8-(1,3,5-trimethyl-1H-pyrazol-4-yl)-4H-pyrano[2,3-c]pyridin-4-one] | > 10000 | 1000 to 10000 | > 10000
NC1(c2ccc(-c3c(-c4ccccc4)oc4[nH]c(=O)ccc4c3=O)cc2)CCC1 [Example 36, 3-[4-(1-Amino-cyclobutyl)-phenyl]-2-phenyl-8H-pyrano[2,3-b]pyridine-4,7-dione hydrochloride] | 1000 to 10000 | 1000 to 10000 | > 10000
CCc1nccc2c(=O)c(-c3ccc(C4(N)CCC4)cc3)c(-c3ccccc3)oc12 [Example 128, 3-(4-(1-aminocyclobutyl)phenyl)-8-ethyl-2-phenyl-4H-pyrano[2,3-c]pyridin-4-one] | ≤ 1000 | 1000 to 10000 | > 10000
NC1(c2ccc(-c3c(-c4ccccc4)oc4c(C(=O)O)cccc4c3=O)cc2)CCC1 [Example 107, 3-[4-(1-Amino-cyclobutyl)-phenyl]-4-oxo-2-phenyl-4H-chromene-8-carboxylic acid. trifluoro-acetic acid] | 1000 to 10000 | > 10000 | > 10000
NC1(c2ccc(-c3c(-c4ccccc4)oc4cc(OC(F)(F)F)ccc4c3=O)cc2)CCC1 [Example 24, 3-[4-(1-Amino-cyclobutyl)-phenyl]-2-phenyl-7-trifluoromethoxy-chromen-4-one] | > 10000 | 1000 to 10000 | > 10000
N#CCOc1ccc2c(=O)c(-c3ccc(C4(N)CCC4)cc3)c(-c3ccccc3)oc2c1Br [Example 110, 2-(3-(4-(1-aminocyclobutyl)phenyl)-8-bromo-4-oxo-2-phenyl-4H-chromen-7-yloxy)acetonitrile] | ≤ 1000 | 1000 to 10000 | 1000 to 10000
NC1(c2ccc(-c3c(-c4ccccc4)oc4c(F)cccc4c3=O)cc2)CCC1 [Example 2, 3-[4-(1-Amino-cyclobutyl)-phenyl]-8-fluoro-2-phenyl-chromen-4-one] | ≤ 1000 | 1000 to 10000 | > 10000
